Source: patent publication US20230256102A1, “COMPOSITES AND USES THEREOF” (YISSUM RESEARCH DEVELOPMENT COMPANY OF THE HEBREW …, priority 2019, published 2023)

Legend:
[1] = tested on: A. citrulli M6; assay: In planta assay, A. citrulli-melon pathosystem; type: in vivo, melon (cv. AN-305); details: 200 ppm @[Cu], 10 ppm LAE; 5 days after inoculation
Description: Assessment of the ability of the LAE @Cu composites to reduce disease: To assess the potential of LAE@Cu composites for management of bacterial plant diseases, we carried out experiments using the A. citrulli-melon pathosystem. In these experiments, the foliage of three-week-old plants of melon (cv. AN-305; Origene Seeds) were sprayed with LAE1.0@Cu composites at a concentration of 200 ppm. Additional treatments included spraying with 200 ppm of @Cu, 10 ppm of LAE (corresponding to the concentration of LAE in 200 ppm LAE×1.0@Cu) and the commercial bactericide Kocide, which was applied at the recommended concentration for management of the disease (2 mg/ml). As controls, foliage were sprayed with double distilled water (DDW). […] Disease severity of inoculated leaves was determined 5 days after inoculation, using the following scale: 0, no symptoms; 1, few minor lesions; 2, few small necrotic spots; 3, increased necrotic spots in less than 25% of the leaf area; 4, increased necrotic spots in 25 to 50% of the leaf area; and 5, increased necrotic spots in more than 50% of the leaf area and dead leaf. The data were statistically analyzed by one-way analysis of variance (ANOVA) and Tukey's honest significant difference (HSD) test.
In-planta assay: Melon plants (cv. AN-305; Origene Seeds) were grown in a growth chamber at 28° C. […] Disease severity was determined 5 days after inoculation.

[2] = tested on: A. citrulli M6; assay: Bactericidal (killing) activity of LAE@Cu composites in vitro; type: cell-based, Acidovorax citrulli; details: LAE at 1.25 ppm, 30 min
Protocol: Assessment of bactericidal activity of LAE @Cu composites in vitro: Bactericidal activity of LAE@Cu composites was tested by adding the composites to 50 ml-PBS suspensions containing ˜10^7 colony forming units (CFU)/ml of A. citrulli M6. The suspensions were incubated at 30° C. with shaking for 30 min. Then, the concentrations of viable bacteria were determined following plating of serial dilutions on nutrient agar (NA, Difco) plates.
Bacterial killing assay: The bactericidal (killing) activity of LAE@[Cu] composites at a concentration of 25 ppm (1.25 mg in 50 ml), were tested in PBS containing ˜107 (CFU)/mL. The suspensions were incubated at 30° C. with shaking for 30 min. Then, the viable bacteria were determined following plating of serial dilutions on NA (nutrient agar) plates. Controls included @[Cu], the composite-like compound without LAE, and the commercial bactericide, Kocide®, at the same concentrations.

CCCCCCCCCCCC(=O)N[C@@H](CCCN=C(N)N)C(=O)OCC [LAE, Lauroyl arginate ethyl ester]
reduction of disease severity as compared with non-treated controls [1]: 29% | reduction of the A. citrulli population [2]: 2 orders of magnitude
